Measured values: patent US12291513B2, “Pyridinium derivatives made by hydrothermal synthesis for use as anolytes in electrochemical cells” (Wisconsin Alumni Research Foundation, priority 2021, dated 2025)
Like-named read-outs stand apart in the source and are kept apart here.

Key:
Format in all cases: physicochemical
Solubility in pure water = details: pure water, 18 °C, water, thermodynamic from solid
Description: A measured amount of Dex-Vi was partially dissolved in pure water. The solution was then centrifuged. The supernatant was decanted, and the volume was measured. The remainder of the solid was dried in a vacuum oven and weighed. Finally, the weight of the remaining Dex-Vi was subtracted from the initial added mass to obtain the amount dissolved in the supernatant, permitting calculation of the maximum soluble concentration.

Degradation in 1M KOH = experiment: Degradation in 1M KOH
[1] = Membrane permeability in H-cell; details: Selemion DSV membrane
Description: 0.33 M Dex-Vi in pure water was separated by an anion-exchange membrane (DSV) from 1 M NaCl in an H-cell. […] The cell was agitated on a shaker to partially simulate flow dynamics. Aliquots of the receiving end (1 M NaCl side) were taken every few days, and the removed volume was replaced with 1 M NaCl. The concentration of Dex-Vi in the aliquot was determined by measuring the absorbance at 285 nm using a UV-Vis spectrophotometer. The concentration as a function of time data was then used to calculate the permeability constant of Dex-Vi. (Kwabi, D. G. et al., Joule 2018, 2, 1894-1906)
Permeability was calculated using Eqn. 4 which follows Fick's Law, where P is the permeability in cm^2·s^−1, A is the membrane area in cm^2, t is elapsed time in seconds, Ct is the concentration (mol·cm^−3) of Dex-Vi on the receiving side at time t, C0 is the initial concentration of Dex-Vi on the donating side, Vo is the volume of one side of the H-cell, and l is the membrane thickness in cm.

[2] = Cyclic voltammetry (formal potentials, Randles-Sevcik diffusion coefficients)
Description: CV and EIS experiments were ran using a PalmSens4 potentiostat with the PSTrace software. Electrochemical experiments were performed in 1.0 M NaCl supporting electrolyte using 15 mM of active material at room temperature (18° C.). Formal potentials for the redox couples were estimated by taking the average potential between the cathodic and anodic peak. Diffusional behavior was investigated by varying the scan rate between 10-100 mV·s^−1 for the first electron reduction and 50-200 mV·s^−1 for the second electron reduction, and the diffusion constants of the reduced and oxidized states (D^R and D^O) were determined via the Randles-Sevcik equation assuming ideal reversible behavior (FIG. 12D). Potentiostatic EIS measurements were used for determination of a combined diffusional constant of the reduced and oxidized states (D^EIS) and of the standard electron kinetic rate constant (k^o). These EIS measurements were performed at the formal reduction potential (held for 30 seconds before measurement) in which the concentration of the two redox states at the electrode surface were assumed to be the same and equal to half of the initially prepared redox species concentration.
A glassy carbon working electrode (CH Instruments, 0.0707 cm^2), a saturated calomel reference electrode (SCE, CH Instruments, +0.241 V vs. SHE), and a platinum wire counter electrode were used for both CV and EIS measurements. The working electrode was polished with 1 μm, 0.3 μm, and 0.05 μm alumina slurry successively. All electrodes were rinsed with deionized water in between measurements.
CVs were taken at various scan rates in order to determine the diffusion coefficients via the Randles-Sevcik relation (Eqn. 1) where ip is the peak current in Amps, n is number of electrons transferred, F is Faraday's constant, A is electrode surface area in cm^2, C is the redox species concentration in mole·cm^−3, R is the ideal gas constant, T is temperature, D is the diffusion coefficient, and v is scan rate in V/s. The anodic peak current […] determines the diffusion coefficient of the reduced state (D^R) while the cathodic peak current (ip,a) determines the diffusion coefficient of the oxidized state (D^O). ip=0.4463n^3/2·F^3/2·A·C·R^−1/2·T^−1/2·D^1/2·v^1/2 Eqn. 1

Viscosity (rheometer) = details: for viscosity: pure water
Description: Viscosity measurements were carried out using an Ares G2 rheometer (TA Instruments) with an advanced Peltier system at 25° C.

C[N+](C)(C)CC(O)C[n+]1ccc(-c2cc[n+](CC(O)C[N+](C)(C)C)cc2)cc1 (centres unmarked) [Dex-Vi, bis(3-trimethylammonio-2-hydroxy)propyl viologen tetrachloride]
solubility (Solubility in pure water; Example 2, read-out: Water Solubility): 1800 mM
solubility (Solubility in pure water; room temperature (~18° C.), read-out: maximum solubility): ~2000 mM
Degradation in 1M KOH, k (Degradation in 1M KOH): 3.22e-06 s⁻¹
permeance [1]: 2.3×10^−11 cm^2·s^−1
first electron formal potential (E1^0) ([2]; 15 mM in 1.0 M NaCl, 18° C.): −0.322 V vs. SHE
E1^0 ([2]; Table 1): −0.322 V vs. SHE
E2^0 ([2]; Table 1): −0.699 V vs. SHE
reduced state diffusion coefficient (D1^R) ([2]; first redox state, 3+ species): 1.9×10^−6 cm^2·s^−1
oxidized state diffusion coefficient (D1^O) ([2]; first redox state, 4+ species): 2.3×10^−6 cm^2·s^−1
D2^O ([2]; second redox state): 4.0×10^−6 cm^2·s^−1
D2^R ([2]; second redox state): 3.1×10^−6 cm^2·s^−1
second electron formal potential (E2^0) ([2]; vs. SHE, 15 mM in 1.0 M NaCl, 18° C.): −0.699 V
Viscosity at 1M, 25° C. (Viscosity (rheometer); 1M, 25° C.): 14.2 cP
viscosity (Viscosity (rheometer); 0.25 M): 1.1 cP
viscosity (Viscosity (rheometer); 0.50 M): 1.8 cP
viscosity (Viscosity (rheometer); 1.0 M): 4.7 cP
viscosity (Viscosity (rheometer); 1.5 M): 50 cP
